Data published in BindingDB's records for doi:10.1111/j.1749-6632.1998.tb10185.x (Albany Medical College, 1998).
“And” between values parts separate entries of the source, which are not always exact repeats. Equal entries are not always repeated.

Each molecule was assayed against T1, 5-hydroxytryptamine receptor 2C (Rattus norvegicus, UniProt P08909).
T1 sequence (P08909 whole entry): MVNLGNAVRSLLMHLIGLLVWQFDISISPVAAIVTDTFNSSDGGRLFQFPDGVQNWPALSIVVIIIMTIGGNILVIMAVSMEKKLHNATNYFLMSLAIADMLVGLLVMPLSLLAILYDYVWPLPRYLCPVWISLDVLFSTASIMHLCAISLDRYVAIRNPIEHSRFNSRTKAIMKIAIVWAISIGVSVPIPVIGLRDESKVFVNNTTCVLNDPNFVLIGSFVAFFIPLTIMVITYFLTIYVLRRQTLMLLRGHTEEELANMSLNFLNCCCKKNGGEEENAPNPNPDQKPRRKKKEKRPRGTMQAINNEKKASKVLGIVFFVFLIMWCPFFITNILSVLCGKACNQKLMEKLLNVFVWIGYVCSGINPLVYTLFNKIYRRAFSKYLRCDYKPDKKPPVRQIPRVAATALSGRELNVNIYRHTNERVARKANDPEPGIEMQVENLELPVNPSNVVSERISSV

SMILES	Ki
O=C(c1ccc(F)cc1)C1CCN(CCn2c(=O)[nH]c3ccccc3c2=O)CC1 [3-(2-{4-[(4-fluorophenyl)carbonyl]piperidin-1-yl}ethyl)-1,2,3,4-tetrahydroquinazoline-2,4-dione]	103 nM and 94 nM
c1ccc2nc(N3CCNCC3)ccc2c1 [2-Piperazin-1-yl-quinoline (Quipazine)]	160 nM and 1340 nM
NCCc1c[nH]c2ccc(C(N)=O)cc12 [[3H]-5-carboxamidotryptamine]	5810 nM
CC[C@@H](CO)NC(=O)[C@@H]1C=C2c3cccc4c3c(cn4C)C[C@H]2N(C)C1	0.8 nM and 1 nM
